Test system: 388556-164-R-J1-PDC complex spheroid viability
Experiment: Anticancer human tumor 388556-164-R-J1-PDC patient-derived colon adenocarcinoma cell line growth inhibition [RAS]
Settings: for IC50: curve of first compound; for viability, T/C: stronger effect = lower value
In short: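 Tumour cells grown as complex spheroids with HUVEC endothelial cells and mesenchymal stem cells, treated with RAS pathway inhibitor combinations. Each agent spans half-log steps from near clinical Cmax, or 10 microM where Cmax is unknown.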

[1] = second compound 0.000949 µM, first compound 0.0316 µM
[2] = second compound 0.000949 µM, first compound 0.1 µM
[3] = second compound 0.000949 µM, first compound 0.316 µM
[4] = second compound 0.000949 µM, first compound 1 µM
[5] = second compound 0.000949 µM, first compound 3.16 µM
[6] = second compound 0.000949 µM, first compound 10 µM
[7] = second compound 0.003 µM, first compound 0.0316 µM
[8] = second compound 0.003 µM, first compound 0.1 µM
[9] = second compound 0.003 µM, first compound 0.316 µM
[10] = second compound 0.003 µM, first compound 1 µM
[11] = second compound 0.003 µM, first compound 3.16 µM
[12] = second compound 0.003 µM, first compound 10 µM
[13] = second compound 0.00949 µM, first compound 0.0316 µM
[14] = second compound 0.00949 µM, first compound 0.1 µM
[15] = second compound 0.00949 µM, first compound 0.316 µM
[16] = second compound 0.00949 µM, first compound 1 µM
[17] = second compound 0.00949 µM, first compound 3.16 µM
[18] = second compound 0.00949 µM, first compound 10 µM
[19] = second compound 0.03 µM, first compound 0.0316 µM
[20] = second compound 0.03 µM, first compound 0.1 µM
[21] = second compound 0.03 µM, first compound 0.316 µM
[22] = second compound 0.03 µM, first compound 1 µM
[23] = second compound 0.03 µM, first compound 3.16 µM
[24] = second compound 0.03 µM, first compound 10 µM
[25] = second compound 0.0949 µM, first compound 0.0316 µM
[26] = second compound 0.0949 µM, first compound 0.1 µM
[27] = second compound 0.0949 µM, first compound 0.316 µM
[28] = second compound 0.0949 µM, first compound 1 µM
[29] = second compound 0.0949 µM, first compound 3.16 µM
[30] = second compound 0.0949 µM, first compound 10 µM
[31] = second compound 0.3 µM, first compound 0.0316 µM
[32] = second compound 0.3 µM, first compound 0.1 µM
[33] = second compound 0.3 µM, first compound 0.316 µM
[34] = second compound 0.3 µM, first compound 1 µM
[35] = second compound 0.3 µM, first compound 3.16 µM
[36] = second compound 0.3 µM, first compound 10 µM
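Note: spheroids exposed to compound for 7 days before readout.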
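Throughout, for viability, T/C: 100% = DMSO vehicle control luminescence.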

CCC(CC)c1cc(NC2CCC(N)C2)n2nccc2n1 (centres undefined) + CCn1c(-c2cccnc2C(C)OC)c2c3cc(ccc31)N1CCOC(CC(NC(=O)C(C(C)C)N(C)C(=O)C3(F)CCN(C(=O)C#CC(C)(C)N(C)C)CC3)C(=O)N3CCCC(N3)C(=O)OCC(C)(C)C2)C1
IC50 (second compound 0.000949 µM): 4.85 µM
IC50 (second compound 0.003 µM): 4.46 µM
IC50 (second compound 0.00949 µM): 5.17 µM
IC50 (second compound 0.03 µM): 4.12 µM
IC50 (second compound 0.0949 µM): 4.76 µM
IC50 (second compound 0.3 µM): 2.94 µM
viability, T/C [1]: 101%
viability, T/C [2]: 95.6%
viability, T/C [3]: 104%
viability, T/C [4]: 106%
viability, T/C [5]: 60.2%
viability, T/C [6]: 32.8%
viability, T/C [7]: 113%
viability, T/C [8]: 105%
viability, T/C [9]: 100%
viability, T/C [10]: 104%
viability, T/C [11]: 57.6%
viability, T/C [12]: 31.9%
viability, T/C [13]: 112%
viability, T/C [14]: 106%
viability, T/C [15]: 102%
viability, T/C [16]: 93.2%
viability, T/C [17]: 64%
viability, T/C [18]: 30.4%
viability, T/C [19]: 105%
viability, T/C [20]: 102%
viability, T/C [21]: 107%
viability, T/C [22]: 106%
viability, T/C [23]: 54.3%
viability, T/C [24]: 35.6%
viability, T/C [25]: 110%
viability, T/C [26]: 87.3%
viability, T/C [27]: 100%
viability, T/C [28]: 103%
viability, T/C [29]: 58.3%
viability, T/C [30]: 34.8%
viability, T/C [31]: 101%
viability, T/C [32]: 89.9%
viability, T/C [33]: 92.6%
viability, T/C [34]: 91.6%
viability, T/C [35]: 47.2%
viability, T/C [36]: 34.4%

C[C@@H](NC(=O)c1ncnc(N)c1Cl)c1ncc(C(=O)Nc2cc(C(F)(F)F)c(Cl)cn2)s1 + CCn1c(-c2cccnc2C(C)OC)c2c3cc(ccc31)N1CCOC(CC(NC(=O)C(C(C)C)N(C)C(=O)C3(F)CCN(C(=O)C#CC(C)(C)N(C)C)CC3)C(=O)N3CCCC(N3)C(=O)OCC(C)(C)C2)C1
IC50 (second compound 0.000949 µM): > 10 µM
IC50 (second compound 0.003 µM): > 10 µM
IC50 (second compound 0.00949 µM): > 10 µM
IC50 (second compound 0.03 µM): > 10 µM
IC50 (second compound 0.0949 µM): > 10 µM
IC50 (second compound 0.3 µM): > 10 µM
viability, T/C [1]: 113%
viability, T/C [2]: 113%
viability, T/C [3]: 115%
viability, T/C [4]: 123%
viability, T/C [5]: 117%
viability, T/C [6]: 94.7%
viability, T/C [7]: 117%
viability, T/C [8]: 102%
viability, T/C [9]: 119%
viability, T/C [10]: 108%
viability, T/C [11]: 121%
viability, T/C [12]: 96.7%
viability, T/C [13]: 105%
viability, T/C [14]: 109%
viability, T/C [15]: 113%
viability, T/C [16]: 108%
viability, T/C [17]: 123%
viability, T/C [18]: 105%
viability, T/C [19]: 113%
viability, T/C [20]: 102%
viability, T/C [21]: 102%
viability, T/C [22]: 109%
viability, T/C [23]: 117%
viability, T/C [24]: 91.1%
viability, T/C [25]: 93.4%
viability, T/C [26]: 115%
viability, T/C [27]: 110%
viability, T/C [28]: 119%
viability, T/C [29]: 113%
viability, T/C [30]: 90.7%
viability, T/C [31]: 87.3%
viability, T/C [32]: 108%
viability, T/C [33]: 99.6%
viability, T/C [34]: 104%
viability, T/C [35]: 115%
viability, T/C [36]: 88%
